#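 These data come from cells grown in 96-well plates and exposed to compound for 48 hours at five concentrations. TGI marks complete inhibition of growth.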
# Legend:
# Test in all cases: inhibition of tumour cell growth, NCI panel, 48 h
# HOP-92 NSCLC = test system: HOP-92 NSCLC
# KM12 colon = test system: KM12 colon
# UO-31 renal = test system: UO-31 renal
# NCI-H460 lung = test system: NCI-H460 lung
# OVCAR-4 ovarian = test system: OVCAR-4 ovarian
# LXFL 529 NSCLC = test system: LXFL 529 NSCLC
# SW-620 colon = test system: SW-620 colon
# CAKI-1 renal = test system: CAKI-1 renal
# HOP-62 NSCLC = test system: HOP-62 NSCLC
# UACC-62 melanoma = test system: UACC-62 melanoma
SMILES,TGI (HOP-92 NSCLC),TGI (KM12 colon),TGI (UO-31 renal),TGI (NCI-H460 lung),TGI (OVCAR-4 ovarian),TGI (LXFL 529 NSCLC),TGI (SW-620 colon),TGI (CAKI-1 renal),TGI (HOP-62 NSCLC),TGI (UACC-62 melanoma)
C/C(=N/O)C1CC=C(S(=O)(=O)c2ccccc2)C1 (configuration not stated),> 100 µM,> 100 µM,> 100 µM,> 100 µM,> 100 µM,> 100 µM,> 100 µM,> 100 µM,> 100 µM,–
OC(c1ccccc1)(c1ccccc1)c1ccccn1,> 100 µM,> 100 µM,> 100 µM,> 100 µM,> 100 µM,> 100 µM,> 100 µM,> 100 µM,> 100 µM,> 100 µM
O=C(CCc1nnc2s/c(=C\c3ccccc3)c(=O)n12)Nc1cc(Cl)ccc1Cl,> 100 µM,> 100 µM,> 100 µM,> 100 µM,> 100 µM,> 100 µM,23.7 µM,> 100 µM,> 100 µM,> 100 µM
COc1c(OC(C)=O)cc2c(OC(C)=O)c1CC(C)CC(OC)C(O)C(C)/C=C(\C)C(OC(N)=O)C(OC)/C=C\C=C(/C)C(=O)N2 (configuration not stated),> 100 µM,> 100 µM,> 100 µM,> 100 µM,> 100 µM,> 100 µM,> 100 µM,> 100 µM,> 100 µM,> 100 µM
CC(=O)NNc1nc(C)c(C(=O)NNC(=O)C(=O)Nc2ccc(C)c(C)c2)s1,> 100 µM,> 100 µM,> 100 µM,> 100 µM,> 100 µM,> 100 µM,> 100 µM,> 100 µM,> 100 µM,> 100 µM
COC(=O)C(C(=O)C(=O)Nc1cccc(O)c1)c1nc2ccc(Cl)cc2[nH]c1=O (configuration not stated),> 100 µM,> 100 µM,> 100 µM,> 100 µM,> 100 µM,> 100 µM,> 100 µM,> 100 µM,> 100 µM,> 100 µM
CC1=C(C(=O)Nc2cccc(C(F)(F)F)c2)C(c2ccc(O)cc2)C(C(=O)Nc2cccc(C(F)(F)F)c2)=C(C)N1,39.3 µM,33.2 µM,53.5 µM,43.1 µM,86.6 µM,55.3 µM,44 µM,59.3 µM,45.5 µM,–
O=c1[nH]c(=S)[nH]c2c1sc(=S)n2-c1ccccc1,> 100 µM,> 100 µM,> 100 µM,> 100 µM,> 100 µM,> 100 µM,> 100 µM,> 100 µM,> 100 µM,> 100 µM
CCCOc1ccc(/C(Cl)=C(\C=O)c2ccc(OC)c(OC)c2)cc1OCCC,51.2 µM,34.5 µM,> 100 µM,28.7 µM,> 100 µM,80.9 µM,> 100 µM,> 100 µM,> 100 µM,19.8 µM
COc1ccc(/C=C/c2cc(OC)c(O[Si](C)(C)C(C)(C)C)c(OC)c2)cc1,> 100 µM,> 100 µM,> 100 µM,> 100 µM,> 100 µM,> 100 µM,> 100 µM,> 100 µM,> 100 µM,> 100 µM
CC(=O)CC(=O)CCCC(=O)Nc1ccc(Cl)cc1C,> 100 µM,> 100 µM,> 100 µM,> 100 µM,> 100 µM,> 100 µM,> 100 µM,> 100 µM,–,> 100 µM
CCOC(=O)C1=C(Nc2ccccc2)OC/C1=N\NC(=O)Cc1ccccc1,> 50 µM,> 50 µM,> 50 µM,> 50 µM,> 50 µM,> 50 µM,> 50 µM,> 50 µM,> 50 µM,> 50 µM

# Reference: PubChem BioAssay (NCI)
